Tests used:
[1] = system: chronic cerebral hypoperfusion model rats (bilateral carotid artery ligation; simulated early AD); assay: Morris water maze orientation navigation experiment in chronic cerebral hypoperfusion model rats; format: in vivo, Sprague Dawley (SD) rats; conditions: for average escape latency in Morris water maze experiment / searching distance in Morris water maze experiment: after 20 consecutive days of administration, CGA 60 mg/kg/d i.p., 3-coumaroylquinic acid alone 0.03 mg/kg/d i.p., sodium oligomannate 100 mg/kg/d gavage, mean±SD, n=10; for escape latency and searching distance of rats compared with the model group (in words): Morris water maze, over the 5-day experiment, versus model group
Description: (§1) In this experiment, the occurrence of mild AD in humans after chronic cerebral hypoperfusion was simulated by performing bilateral carotid artery ligation in rats, and the intervention of the pharmaceutical composition according to the present invention on the learning and memory ability of these rats was observed, in order to investigate the therapeutic effect of the pharmaceutical composition according to the present invention on early AD.
(§2) 2.1. Experimental Animals: 6-8 Week Old, SPF Grade, Male Sprague Dawley (SD) Healthy Rats, Weighing 280-300 g.
(§3) A chronic cerebral hypoperfusion model was established by bilateral carotid artery ligation. Rats were acclimated to the environment for 1 week, and then fasted for 12 h and water-deprivated for 4 h before surgery. The rats were anesthetized with 0.4% pentobarbital sodium (0.5 mL/100 g i.p.), and fixed in a supine position on the operating table. Hair was removed from the skin in front of the neck. The naked skin was disinfected with iodine, and then the rats were incised in the middle of the neck. The subcutaneous superficial fascia was bluntly separated, and then the sternocleidomastoideole and sternohyoid muscle were carefully separated along both sides of the trachea, with arterial sheath visible; the bilateral common carotid arteries were separated and exposed with a glass needle, to bury the thread, and then double ligated with silk thread. The blood vessels between the two ligation points were cut off. The incision was sutured layer by layer and disinfected, followed by waiting for awakening of rats. During the operation, incandescent lamp irradiation was used to maintain the anal temperature of rats at 36.5° C.-37.5° C. After surgery, each rat was placed in a single cage to prevent suffocation.
(§4) 10 healthy SD rats with suitable body weight (within the required range) were randomly selected as the normal control group. 80 successfully modeled rats were randomly divided into 8 groups, with 10 rats in each group. They were named as follows: model control group (n=10), CGA treatment group (n=10), 3-coumaroylquinic acid treatment group (n=10), CGA+3-coumaroylquinic acid (100:0.01) treatment group (n=10), CGA+3-coumaroylquinic acid (100:0.05) treatment group (n=10), CGA+3-coumaroylquinic acid (100:0.5) treatment group (n=10), CGA+3-coumaroylquinic acid (100:1) treatment group (n=10), sodium oligomannate treatment group (n=10), and thus, there are […], along with the normal control group (n=10), for a total of 90 rats.
In this experiment, except for sodium oligomannate treatment group, which was administered by gavage, all other treatment groups were administered by intraperitoneal injection to each group of rats. The blank group and model group were given the solvent physiological saline by intraperitoneal injection. Rats in each treatment group were administrated one week after modeling surgery. Then, after 20 consecutive days of administration, the experiment was carried out. The administration continued during the experiment. At the same time, both the blank group and the model group were given an equal amount of physiological saline. […]

[2] = system: chronic cerebral hypoperfusion model rats (bilateral carotid artery ligation; simulated early AD); assay: Morris water maze space exploration experiment in chronic cerebral hypoperfusion model rats; format: in vivo, Sprague Dawley (SD) rats; conditions: for searching time in the quadrant of the original platform compared with the model group (in words): Morris water maze space exploration, versus model group; for Time spent in the original platform quadrant: platform removed, after the orientation navigation experiment, CGA 60 mg/kg/d i.p., 3-coumaroylquinic acid alone 0.03 mg/kg/d i.p., sodium oligomannate 100 mg/kg/d gavage, mean±SD, n=10
Description: as §1, §2, §3, §4
In this experiment, except for sodium oligomannate treatment group, which was administered by gavage, all other treatment groups were administered by intraperitoneal injection to each group of rats. […]

SMILES | average escape latency in Morris water maze experiment ([1]; Day 1) [s] | searching distance in Morris water maze experiment ([1]; Day 1) [cm] | average escape latency in Morris water maze experiment ([1]; Day 2) [s] | searching distance in Morris water maze experiment ([1]; Day 2) [cm] | average escape latency in Morris water maze experiment ([1]; Day 3) [s] | searching distance in Morris water maze experiment ([1]; Day 3) [cm] | average escape latency in Morris water maze experiment ([1]; Day 4) [s] | searching distance in Morris water maze experiment ([1]; Day 4) [cm] | average escape latency in Morris water maze experiment ([1]; Day 5) [s] | searching distance in Morris water maze experiment ([1]; Day 5) [cm] | escape latency and searching distance of rats compared with the model group (in words) [1] | searching time in the quadrant of the original platform compared with the model group (in words) [2] | Time spent in the original platform quadrant [2] [s]
O=C(/C=C/c1ccc(O)cc1)O[C@@H]1C[C@](O)(C(=O)O)C[C@@H](O)[C@H]1O [3-coumaroylquinic acid] | 98.1 ± 16.8 | 1127.3 ± 117.2 | 94.2 ± 15.3 | 954.5 ± 119.3 | 81.5 ± 13.7 | 892.6 ± 106.2 | 75.4 ± 16.3 | 577.1 ± 72.5 | 51.8 ± 14.2 | 407.1 ± 44.3 | almost no improvement | almost no extension | 30.2 ± 7.8
O=C(/C=C/c1ccc(O)c(O)c1)O[C@@H]1C[C@](O)(C(=O)O)C[C@@H](O)[C@H]1O [CGA, 3-O-caffeoylquinic acid] | 95.4 ± 15.1 | 1125.6 ± 108.4 | 89.2 ± 17.5 | 944.3 ± 102.5 | 75.6 ± 12.6 | 844.8 ± 99.1 | 70.7 ± 14.5 | 560.9 ± 64.2 | 46.3 ± 10.6 | 395.2 ± 42.7 | almost no improvement | almost no extension | 32.6 ± 8.5
